Measured values reported in US20040029953A1, “Use of neuropeptide-y antagonists in treatment of alcoholism” (priority 2000, published 2004).
“Also recorded” adds a separate entry of the source.

What was measured:
rats = conditions: cited from earlier work
Long-Evans rats [1] = assay: Ethanol (10% v/v) vs. water self-administration after infusion in the PVN, sucrose-faded rats with long-term ethanol history; format: in vivo, rat
Source text: The effectiveness of known NPY receptor antagonists and NPY Y1-selective or Y5selective receptor antagonists in reducing craving for alcohol and reducing self-administration of alcohol can be tested in experimental animal models. Briefly, Long-Evans rats are conditioned to the laboratory environment and trained to self-administer concurrent ethanol (10% v/v) vs. water using a sucrose-fading procedure (H. H. Samson, Alcohol Clin. Exp. Res., 1986, 10:436442) as described by Hodge et al. (Alcohol, 1993, 10:191-196). Stereotaxic surgery is performed to implant injector guide cannulae aimed at the PVN. Microinjections of test compounds are given, with and without concomitant injection of NPY, into the PVN of the conditioned rats, which are then immediately given the opportunity to self-administer either water or ethanol (10% v/v). The volume of ethanol and water consumed are measured. Ethanol intake is converted from milliliters consumed to gram/kilogram body weight. Relative ethanol intake (preference) is calculated as […] of ethanol consumed divided by total fluid intake (ethanol+water […]). Drug dose effects are analyzed by one-way repeated measures analysis of variance (ANOVA). Post-hoc comparisons between drug doses and vehicle control are conducted using a paired t-test or Dunnett's t-test where appropriate (SigmaStat, Jandel, San Rafael, Calif.).
Animals. Thirty-six male Long-Evans rats (Harlan, Indianapolis, Ind.) were housed individually in Plexiglas cages. Access to water was restricted during the first day of behavioral training, but was continuously available for the remainder of the experiment. Food was always available in the home cage. In experimental chambers, ethanol (10% v/v) and water were available concurrently during daily (M-F) sessions. The animal colony room was maintained on a 12L:12D cycle with the lights on at 06:30. Experimental sessions were run during the light portion of the cycle. All experimental procedures were conducted under institutional and NIH guidelines.
Apparatus. Experimental sessions were conducted in Plexiglas chambers (27×37×21 cm) located in sound-attenuating cubicles (MED Associates, model ENV 016M, Lafayette, Ind.). Chambers were equipped with exhaust fans that masked external noise. The right wall of each chamber contained two 50-ml drinking bottles. Drug solutions were administered bilaterally through stainless steel injectors (Plastics One, Roanoke, Va.), which were connected via plastic tubing to two 1.0 μl syringes (Hamilton, Reno, Nev.). Syringes were mounted on a micro-infusion pump (Harvard Apparatus, Model 22, Natick, Mass.) set to deliver 0.5 μl/min/syringes.
Self-administration procedures. After 2 weeks of adaptation to laboratory housing conditions, fluid access was restricted to 1-h per day (for 2 days only) and two groups of rats (n=12 per group) were trained to drink from the bottles in the experimental chambers by overnight access to sucrose (10% w/v) vs. water during one overnight session. Daily 1 hour sessions were then conducted with sucrose (10% w/v) vs. water available concurrently. The location (i.e., left or right side of the chamber) of the sucrose and water solutions was alternated daily. When sucrose and water intake patterns stabilized, the rats were trained to self-administer concurrent ethanol (10% v/v) vs. water using a sucrose-fading procedure (H. H. Samson, Alcohol Clin. Exp. Res., 1986, 10:436-442) as previously described (e.g., Hodge et al., 1993). Briefly, ethanol was gradually added to the sucrose solution and then sucrose was faded out of the solution until rats were self-administering 10% ethanol vs. water. During the 2-month sucrose-fading procedure, the location of the ethanol/sucrose solution and water were alternated daily.

[2] = test system: rats trained to self-administer ethanol vs. water; assay: Microinjection in the central nucleus of the amygdala (CeA), ethanol vs. water self-administration; format: in vivo, rat
Description: FIG. 4 depicts a dose response curve showing the effects the NPY-Y1 antagonist BIBP 3226 in the central nucleus of the Amygdala.
To further elucidate the role of NPY receptors in alcohol-seeking behavior, the NPY-Y1 […] BIBP 3226 was injected in the central nucleus of the amygdala (CeA) of rats trained to self-administer ethanol vs. water as described (Kelley et al., 2001 Peptides 22: 515-522). The CeA was chosen as an additional test site because, in addition to the hypothalamus, this brain region contains significant numbers of NPY receptors.

Y1 receptor = target: T1, Y1 receptor (Homo sapiens, UniProt P25929); conditions: cited from earlier work
T1 sequence (P25929 1-384): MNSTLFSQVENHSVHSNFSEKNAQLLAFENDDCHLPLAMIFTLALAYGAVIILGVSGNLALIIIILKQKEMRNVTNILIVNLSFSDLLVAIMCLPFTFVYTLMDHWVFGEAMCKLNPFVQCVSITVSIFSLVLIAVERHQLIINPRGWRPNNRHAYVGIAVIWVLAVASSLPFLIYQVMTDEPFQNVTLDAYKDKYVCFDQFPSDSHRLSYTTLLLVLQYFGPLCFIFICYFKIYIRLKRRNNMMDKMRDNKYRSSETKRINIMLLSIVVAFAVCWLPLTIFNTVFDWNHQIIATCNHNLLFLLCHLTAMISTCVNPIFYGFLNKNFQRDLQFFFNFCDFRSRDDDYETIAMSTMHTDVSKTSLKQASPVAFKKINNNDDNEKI

Long-Evans rats [3] = assay: Ethanol vs. water intake after NPY infusion in the PVN, control rats with no long-term history of ethanol self-administration; format: in vivo, rat; conditions: for ETOH Intake / ETOH Preference (%) / water intake: mean±SEM
Source text: Since NPY has potent effects on consummatory behavior, it is possible that NPY infusions in the PVN could alter ethanol intake via mechanisms that are unrelated to experience with the pharmacological effects of ethanol. […] Experimentally naive rats were allowed one week to adapt to the laboratory. They were then implanted with bilateral guide cannulae aimed at the PVN. Experimental sessions began one week after surgery to allow for recovery. During daily 60-min sessions, rats were placed in the self-administration chambers with concurrent ethanol (10% v/v) vs. water available. Baseline levels of ethanol and water intake were measured for one week. Microinjection procedures were then conducted.
(§1) Microinjection procedure. When ethanol and water intake stabilized again, microinjections were conducted once per week. Unanesthetized rats were placed in plastic containers (15×30×15 cm deep) to reduce movement. Obturators were removed and sterile 33-gauge injectors were inserted bilaterally to a depth 1 mm beyond the end of the guide cannulae. Drug solutions were infused bilaterally in distilled water vehicle in a total volume of 1 μl (0.5 μl/side) over a 1-min period. The injectors were left in place for an additional 30-sec period to allow drug diffusion. Precise flow of the solutions was verified before and after each injection to ensure compound delivery. Self-administration sessions began immediately after microinjections. Sterile obturators were reinserted at the end of the behavioral sessions. When co-administered, D-NPY or BIBP 3226 was infused 15-min prior to NPY. Vehicle injections were also performed to control for local pressure or osmotic changes caused by infusions. During one month prior to drug testing, the animals were handled and placed in the plastic tubs to minimize the effects of procedural changes on subsequent drug effects. The data from these sessions were not used in the analysis. After completion of the microinjection protocol, the rats were sacrificed and their brains were removed for histological verification of injection sites.
Data analysis and statistics. Volume of ethanol and water consumed was measured to the nearest 0.5 milliliter at the end of each 1-h session. Ethanol intake was converted from mls consumed to g/kg body weight. Relative ethanol intake (preference) was calculated as mls of ethanol consumed divided by total fluid intake (ethanol+water mils). Drug dose effects were analyzed by one-way repeated measures analysis of variance (ANOVA). Post-hoc comparisons between drug doses and vehicle control were conducted using paired t-test or Dunnett's t-test where appropriate (SigmaStat, Jandel, San Rafael, Calif.).
Data values are presented as mean±SEM.

Long-Evans rats [4] = assay: Body weight, food intake and water intake in the home cage 24 hours after PVN infusion; format: in vivo, rat
Description: FIG. 2 depicts the effects of NPY or NPY+D-NPY infused in the PVN on (A) body weight, (B) food intake, and (C) water intake measured in the home cage 24 hours after infusion. Drug doses were administered in random order. Data are plotted as Mean±SEM of 11 rats.
as §1

[5] = BIBP 3226 (10.6 μm) alone in the PVN
[6] = any dose of NPY tested, rats without long-term ethanol history
[7] = NPY in the PVN, 24 hours after infusion, ethanol-experienced rats
[8] = NPY, sucrose-inexperienced animals
[9] = D-NPY co-administered with NPY (10 fmol) in the PVN

N=C(N)NCCC[C@@H](NC(=O)C(c1ccccc1)c1ccccc1)C(=O)NCc1ccc(CNC(N)=O)cc1.O=C(O)C(F)(F)F [BIBO 3304, (R)-N-[[4-(aminocarbonylaminomethyl)-phenyl]methyl]-N^2-(diphenylacetyl)arginine amide trifluoroacetate]
food intake induced by application of NPY or by fasting (rats; rats): significantly inhibits food intake

N=C(N)NCCC[C@@H](NC(=O)C(c1ccccc1)c1ccccc1)C(=O)NCc1ccc(O)cc1 [BIBP 3226, (R)-N^2-(diphenylacetyl)-N-[(4-hydroxyphenyl)methyl]-D-arginine amide]
ethanol intake (Long-Evans rats [1]; [5]): no significant effect
ethanol preference (Long-Evans rats [1]; [5]): no significant effect
water intake (Long-Evans rats [1]; [5]): no significant effect
NPY-induced increase in ethanol intake (Long-Evans rats [1]; BIBP 3226 co-administered with NPY (10 fmol) in the PVN): completely blocked
dose of self-administered ethanol ([2]; BIBP 3226 in the CeA, highest dose, 1-hour sessions, vs vehicle, p<0.05): reduced ethanol self-administration after infusion of the highest dose; also recorded: significantly reduced alcohol self-administration; also recorded: significantly reduced the dose of alcohol that was self-administered
water intake ([2]; BIBP 3226 injected in the CeA): no effect on water intake

NPY 2-36: an N-terminal truncated NPY fragment
affinity for the Y1 receptor subtype (Y1 receptor): low potency

Neuropeptide Y [NPY]
ETOH Intake (Long-Evans rats [3]; NPY 10.0 fmol in the PVN): 0.0330 ± 0.024 g/kg/h
ETOH Preference (%) (Long-Evans rats [3]; NPY 10.0 fmol in the PVN): 20.0 ± 13.333%
water intake (Long-Evans rats [3]; NPY 10.0 fmol in the PVN): 0 ± 0 mL/h
ETOH Intake (Long-Evans rats [3]; NPY 100.0 fmol in the PVN): 0.0550 ± 0.03 g/kg/h
ETOH Preference (%) (Long-Evans rats [3]; NPY 100.0 fmol in the PVN): 30 ± 15.275%
water intake (Long-Evans rats [3]; NPY 100.0 fmol in the PVN): 0.3 ± 0.133 mL/h
change in ethanol intake (Long-Evans rats [3]; [6]): no dose of NPY tested produced a change; also recorded: no effect on ethanol intake
change in ethanol preference (Long-Evans rats [3]; [6]): no dose of NPY tested produced a change
change in water intake (Long-Evans rats [3]; [6]): no dose of NPY tested produced a change
body weight in the home cage (Long-Evans rats [4]; [7]): no effect
food consumption in the home cage (Long-Evans rats [4]; [7]): no effect
water intake in the home cage (Long-Evans rats [4]; NPY in the PVN, 24 hours after infusion, ethanol-experienced rats, p<0.05): reduced water intake in the home cage; also recorded: small but significant reductions
body weight in the home cage (Long-Evans rats [4]; [8]): no effect
food intake in the home cage (Long-Evans rats [4]; [8]): no effect
water intake in the home cage (Long-Evans rats [4]; [8]): no effect
ethanol intake (Long-Evans rats [1]; NPY (10 fmol) in the PVN, BIBP 3226 group of 9 rats): significantly increased ethanol intake above control values
water intake during experimental sessions (Long-Evans rats [1]; NPY infused in the PVN): decreased water intake in a dose-dependent manner; also recorded: significantly decreased water intake
ethanol intake (Long-Evans rats [1]; NPY infused in the PVN, all doses, 1-hour session, vs vehicle control): increases alcohol self-administration; also recorded: significantly increased ethanol intake
ethanol preference (Long-Evans rats [1]; NPY infused in the PVN, dose-dependent, 1-hour session): significantly increased ethanol preference
ethanol as share of fluid consumption during daily sessions (Long-Evans rats [1]; two highest doses of NPY in the PVN): greater than 90%

[D-Tyr^27,36,D-Thr^32] Neuropeptide Y (27-36) [D-NPY]
body weight in the home cage (Long-Evans rats [4]; D-NPY alone or in combination with NPY in the PVN): produced no effect on body weight
ethanol intake (Long-Evans rats [1]; D-NPY alone infused in the PVN): partial, but significant, decrease in ethanol intake
NPY-induced decrease in water intake during sessions (Long-Evans rats [1]; [9]): completely blocked the effects of NPY on ethanol and water intake; also recorded: significantly reversed NPY-induced decreases in water intake
NPY-induced increase in ethanol intake (Long-Evans rats [1]; [9]): completely blocked the effects of NPY on ethanol and water intake
NPY-induced increase in ethanol preference (Long-Evans rats [1]; D-NPY co-administered with NPY (10 fmol) in the PVN, P<0.09): did not significantly alter

[Pro^34]-NPY: Y1 agonist that stimulates feeding
food intake relative to that seen following the injection of NPY (rats; rat, in vivo): approximately 50%
